Assay results: patent US20100183600A1, “RAF Inhibitors and Their Uses” (ARQULE, INC., priority 2008, published 2010)
Converted amounts (≈) assume the structure as drawn. “Also recorded” adds a separate entry of the source.

Key:
RKO = experiment: Cell growth inhibition assay (MTS); assay type: cell-based; details: Homo sapiens
Description: (§1) Compounds of the present invention have been tested for activity against a variety of cancer cell lines. The ability of compounds to inhibit cell growth in this assay is correlated with the reduction of dehydrogenase enzyme activity found in metabolically active cells.
(§2) Materials: A large variety of cancer cells from ATCC were maintained at 37° C., 5% CO2 in DMEM media supplemented with 10% fetal bovine serum, penicillin/streptomycin and fungizone (Invitrogen). NCM460 (Incell), a normal colon epithelial cell line, and human mammary epithelial cells (Cambrex) were maintained at 37° C., 5% CO2 in DMEM and HEBM media (Cambrex), respectively.
(§3) Methods: Test compounds were dissolved and diluted to 300× in DMSO then diluted 1:40 in DMEM. Cells were seeded into 96-well tissue culture plates at 1-5×10^3 per well and cultured at 37° C. for 24 h. Cells were incubated with test compounds for 72 hours followed by incubation with tetrazolium compound (3-(4,5-dimethylthiazol-2-yl)-5-(3-carboxymethoxyphenyl)-2-(4-sulfophenyl)-2H-tetrazolium, inner salt; MTS) and the electron coupling reagent, phenazine methosulfate (PMS) for 4 hr. […] The measurement of the absorbance of the formazan was assessed using an ENVISION™ (Perkin Elmer) microplate reader at 492 nm. The calculated IC50 value is the concentration of the test compound that causes a 50% decrease in the absorbance.

DLD-1 = experiment: Cell growth inhibition assay (MTS); assay type: cell-based; details: Homo sapiens
Description: as §1, §2, §3

SK-MEL-28 = experiment: Cell growth inhibition assay (MTS); assay type: cell-based; details: Homo sapiens
Description: as §1, §2, §3

WM-266-4 = experiment: Cell growth inhibition assay (MTS); assay type: cell-based; details: Homo sapiens
Description: as §1, §2, §3

A375 = experiment: Cell growth inhibition assay (MTS); assay type: cell-based; details: Homo sapiens
Description: as §1, §2, §3

[1] = Equilibrium solubility at varying pH (shake flask); assay type: physicochemical; details: for solubility: 25 °C, thermodynamic from solid
Description: Solubility of the compounds was determined by the traditional shake flask method. Aliquots of solid compounds were mixed with an appropriate buffer of the desired pH and equilibrated by shaking at room temperature (˜25° C.) for 6-24 hours. Following aqueous buffers were used for the pH control: 0.1N HCl pH=1.2, 50 mM Lactate buffer pH=3.0, 50 mM Acetate buffer pH=5.0, and 100 mM Phosphate buffer pH 7.4. After equilibration, samples were filtered through a 0.45 um filter and analyzed by HPLC/UV against the calibration curves of standard solution.

human tumors (A375) = experiment: Xenograft model in athymic mice; assay type: in vivo, mouse
Description: Compound 17 was injected intra-peritoneally (IP) at 160 mg/kg and compound 19 was injected IP at 300 mg/kg (equivalent dose if expressed in mmole/kg, taking into account salt components).
A mouse xenograft model was performed according to the method of Jacob et al, Gene Ther Mol Biol 2004; 8:213-219 and Wilhelm et al, Cancer Research 2004; 64: 7099-7109.
Animal Care. Six week old female NCr nu/nu mice were purchased from Taconic Farms, Germantown, N.Y. and allowed to acclimate 1-2 weeks. Mice were housed in sterile micro isolator cages, 5 mice per cage and receive food and water ad libitum. All experimental procedures and surgical manipulations were approved in accordance with ArQule's Institutional Animal Care and Use Committee (IACUC).
Tumor Cell Lines and Model. Carcinoma cell lines were obtained from and propagated as recommended by American Type Tissue Culture (ATCC), (Manassas, Va.). Mice were implanted subcutaneously with 2.5-10×10^6 cells in 0.1 ml sterile Hanks Balanced Salt Solution (HBSS) in the upper right flank area. […] Tumor weight (mg) was calculated from the equation length×(width)^2)/2; this formula can also be used to calculate tumor volume assuming unit density 1 mg=1 mm^3 Percent inhibition or tumor growth inhibition (TGI) was calculated using the following formula: 1-[mean tumor value of treated/mean tumor value of control]×100. […]

p-Erk (A375) = experiment: Cell-based phosphorylation assay with electroblotting readout; design: species or system human; details: Homo sapiens, A-375; A375 cells, 1 hr
Excerpt: Compounds of the present invention have been screened for their ability to inhibit all isoforms, both wild-type and mutant of RAF kinases (A-RAF, B-RAF and C-RAF) in general, and the mutant B-RAF (V600E) in particular in human cancer cells. A375 is a human melanoma cell line that harbors the most common B-RAF mutation-V600E found in human cancers. The ability of compounds to inhibit RAF kinases in this assay is correlated with the reduction of MEK and ERK phosphorylation, and is therefore a direct indicator of potential in vivo therapeutic activity.
Materials: A375 cells from ATCC were maintained at 37° C., 5% CO2 in DMEM media supplemented with 10% fetal bovine serum, penicillin/streptomycin and fungizone. (Invitrogen)
Methods: Test compounds were dissolved and diluted 1:1000 in DMSO. A375 cells were seeded in six-well tissue culture plates at 5-8×10^5 per well and cultured at 37° C. for 24 h. Cells were incubated with compounds for one hour before being lysed in EPage™ loading buffer (Invitrogen). Lysates were electrophoresed on 8% EPage™ gels and transferred to polyvinylidene difluoride membranes. After incubations with primary and secondary antibodies, the immunostained proteins were detected and quantitated by an Odyssey infrared imager (LI-COR). Analysis was performed by non-linear regression to generate a dose response curve. The calculated IC50 value was the concentration of the test compound that causes a 50% decrease in phospho-MEK and phospho-ERK levels. The primary antibodies used were anti-MEK (Stressgen), anti-ERK (BD Biosciences), anti-phospho-ERK and anti-phospho-MEK (Cell Signaling). The secondary antibodies used were IRDYE800 anti-rabbit, IRDYE 800 anti-mouse (Rockland), AlexaFluor680 anti-mouse and AlexaFluoro680 anti-rabbit (Invitrogen).
A375 cells were treated with 0, 12, 37, 111, 333 and 1000 nM of indicated compounds for 1 hr. The levels of Phospho-ERK and total-ERK were accessed by immunoblotting.

[2] = aqueous buffer (0.1N HCl), pH 1.2, simulated gastric fluid

## Cn1ccc(S(=O)(=O)N2CCC[C@@H](Nc3nccc(-c4c(-c5cccc(O)c5)nc5occn45)n3)C2)n1 [Compound 17, (R)-3-(5-(2-(1-(1-methyl-1H-pyrazol-3-ylsulfonyl)piperidin-3-ylamino)pyrimidin-4-yl)imidazo[2,1-b]oxazol-6-yl)phenol]
RKO; 72 hours
  GI50: 0.095 µM
DLD-1; DLD-1, 72 hours
  GI50: 12.1 µM
SK-MEL-28; SK-MEL-28, 72 hours
  GI50: 0.097 µM
WM-266-4; WM-266-4, 72 hours
  GI50: 0.0006 µM
A375; A-375, 72 h, A375, 72 hours
  GI50: < 0.0004 µM
[1]; aqueous buffer (50 mM lactate buffer), aqueous buffer, pH 3.0
  solubility: 10 µg/mL (≈ 19.2 µM)
[1]; [2]
  solubility: 1050 µg/mL (≈ 2020 µM)
[1]; pH 5.0
  Aqueous solubility: insoluble
[1]; pH 7.4
  Aqueous solubility: insoluble
Human tumors (A375); IP at 160 mg/kg, FIG. 3, 160 mg/kg
  anti-tumor activity in a xenograft cancer model: retain their anti-tumor activity; also recorded: equally effective
p-Erk (A375)
  EC50: 0.093 µM

## Cn1ccc(S(=O)(=O)N2CCC[C@@H](Nc3nccc(-c4c(-c5cccc(OCOP(=O)(O)O)c5)nc5occn45)n3)C2)n1 [Compound 19, (R)-(3-(5-(2-(1-(1-methyl-1H-pyrazol-3-ylsulfonyl)piperidin-3-ylamino)pyrimidin-4-yl)imidazo[2,1-b]oxazol-6-yl)phenoxy)methyl dihydrogen phosphate]
RKO; colon carcinoma
  GI50: 0.57 µM
DLD-1; DLD-1, colon
  GI50: 19 µM
SK-MEL-28; SK-MEL-28, malignant melanoma
  GI50: 1.7 µM
WM-266-4; WM 266-4, WM-266.4, melanoma
  GI50: 0.13 µM
A375; A-375, A375, skin
  GI50: 0.3 µM
A375; A-375, A-375, melanoma
  GI50: 0.28 µM
[1]; aqueous buffer (50 mM acetate buffer), aqueous buffer, pH 5.0
  solubility: > 13000 µg/mL
[1]; aqueous buffer (100 mM phosphate buffer), pH 7.4, aqueous buffer
  solubility: > 300000 µg/mL
[1]; [2]
  solubility: < 1300 µg/mL
[1]; at or near biologically relevant pH
  solubility in aqueous solution compared with compound 17: dramatically more soluble
Human tumors (A375); IP at 300 mg/kg, FIG. 3, 300 mg/kg
  anti-tumor activity in a xenograft cancer model: retain their anti-tumor activity; also recorded: equally effective
p-Erk (A375)
  EC50: 0.095 µM
